Results from patent US10047122B2, “Peptide and peptide mimetic binding antagonists of polo-like kinase 1 polo box domain and methods of use” (The United States of America, as represented by the …, priority 2013, dated 2018).
Numbered stars: 1 amine (or outer) side, 2 acyl side, 3 side chain; on linkers, the order of the positions; unused ones are H or OH. Square brackets hold non-standard residues; d marks the D form. Peptide text beside a SMILES is read from it. X1 = C[C@@H](OP(=O)(OCOC(=O)C(C)(C)C)OCOC(=O)C(C)(C)C)[C@H](N[*:1])C(=O)[*:2]; X2 = C[C@@H](CP(=O)(OCOC(=O)C(C)(C)C)OCOC(=O)C(C)(C)C)[C@H](N[*:1])C(=O)[*:2]; His(π-(CH2)8Ph) = N[C@@H](Cc1cncn1CCCCCCCCc1ccccc1)C(=O)O

Assays:
Porcine Liver Esterase = test: PLE hydrolysis experiment (enzymatic deprotection of POM-protected peptides); format: in vitro ADME; conditions: pig, 200 μM peptide, pH 7.4, 37° C.
Experimental: Hydrolysis assays were run on five POM-protected peptides (see below):
(§1) There are three types of hydrolysis experiment performed in these peptides.
Type 1: 200 μM peptide with Porcine Liver Esterase (58 units, according the protocol presented in Srivastva, D. N.; Farquhar, D. Bioorg. Chem. 1984, 12, 118).
PLE hydrolysis experiment. 0.05M potassium phosphate buffer (pH 7.4) was placed in centrifuge tube. A solution of selected peptide in methanol was added to the buffer. Final concentration of the peptide was 200 μM, MeOH was less than 1% in solution. Take 1 mL of the above solution, then added Pig liver esterase (57.6 units). The reaction mixture was then incubated at 37° C. by shaking. At different time point, certain amount (50 μL) of reaction mixture was taken and placed in a separate Eppendorf tube containing 1 equiv. volume MeCN (50 μL). After work-up, the hydrolysis product was monitored by LC-MS.

[1] = Cell lysate hydrolysis experiment; format: in vitro ADME; conditions: 1 μM peptide in cell lysate, 37° C.; read-out: Half-life of peptides in cell lysate
Experimental: as §1
Type 3: 1 μM peptide in cell lysate.
Cell lysate hydrolysis experiment. Cell lysate was placed in 96-well plate. A solution of selected peptide in DMSO was added to the cell lysate. Final concentration of the peptide was 1 μM, DMSO was less than 1% in solution. The reaction mixture was then incubated at 37° C. by shaking. At different time point, 1 equiv. by volume of MeCN was added to well to quench the reaction. After work-up, the hydrolysis product was monitored by LC-MS.

[2] = Culture medium hydrolysis experiment; format: in vitro ADME; conditions: for half-life at 1 μM: 1 μM peptide in culture medium
Experimental: as §1
Type 2: 1 μM peptide in culture medium and 200 μM peptide in culture medium.
Culture medium hydrolysis experiment. Culture medium was placed in centrifuge tube. A solution of selected peptide in methanol was added to the culture medium. Final concentration of the peptide was 1 μM or 200 μM, MeOH was less than 1% in solution. The reaction mixture was then incubated at 37° C. by shaking. At different time point, certain amount (50 μL) of reaction mixture was taken and placed in a separate Eppendorf tube containing 1 equiv. volume MeCN (50 μL). After work-up, the hydrolysis product was monitored by LC-MS.

[3] = biological target: T1, Plk1 PBD (cellular lysates expressing HA-EGFP-Plk1) (Homo sapiens, UniProt P53350); test: ELISA-based PBD-binding inhibition assay; conditions: immobilized biotinylated p-T78 peptide, lysates with full-length Plk1
T1 construct: cell lysates containing full-length Plk1 were incubated with test peptides; expressed in transfected cells; host or cells: 293A cells infected with adenovirus expressing HA-EGFP-Plk1, arrested with nocodazole
Experimental: An ELISA-based PBD-binding inhibition assay was carried out using an immobilized biotinylated 9-mer p-T78 peptide {Biotin-C—(CH2)6-(CH2)6-DPPLHSpTAI-NH2} and the cellular lysates expressing HA-EGFP-Plk1.
A biotinylated p-T78 peptide was first diluted with 1× coating solution (KPL Inc., Gaithersburg, Md.) to the final concentration of 0.3 μM, and then 100 μl of the resulting solution was immobilized onto a 96-well streptavidin-coated plate (Nalgene Nunc, Rochester, N.Y.). The wells were washed once with PBS plus 0.05% Tween20 (PBST), and incubated with 200 μl of PBS plus 1% BSA (blocking buffer) for 1 h to prevent non-specific binding. […] Following the incubation, ELISA plates were washed 4 times with PBST. To detect bound HA-EGFP-Plk1, the plates were probed for 2 h with 100 μl/well of anti-HA antibody at a concentration of 0.5 μg/ml in blocking buffer and then washed 5 times. The plates were further probed for 1 h with 100 μl/well of HRP-conjugated secondary antibody (GE Healthcare, Piscataway, N.J.) at a 1:1,000 dilution in blocking buffer. The plates were washed 5 times with PBST and incubated with 100 μl/well of 3,3′,5,5′-tetramethylbenzidine (TMB) solution (Sigma, St. Louis, Mo.) as a substrate until a desired absorbance was reached. […] The optical density (O.D.) was measured at 450 nm by using an ELISA plate reader (Molecular Devices, Sunnyvale, Calif.).

HeLa cells = format: cell-based
Experimental: Cell culture, analysis of the cell proliferation and aberrant mitotic population, and indirect immunofluorescence microscopy: HeLa cervical carcinoma cell line CCL2, 293A and 293T cells were cultured as recommended by the American Type Culture Collection (Manassas, Va.), were cultured as recommended by American Type Culture Collection (Manassas, Va.). To prepare mitotic 293A cells expressing HA-EGFP-Plk1, cells were infected with adenovirus expressing HA-EGFP-Plk1 and arrested with 200 ng/ml of nocodazole for 16 h. To analyze the effect of the indicated compounds in cultured cells, logarithmically growing HeLa cells were treated with 200 μM of the indicated compounds for 24 h (a sufficient amount of time to enrich mitotically-arrested cells), treated with Hoechst 33342 for […], and then fixed with 4% paraformaldehyde.
Cell-based growth inhibition assays were performed.

[4] = 37° C., read-out: Half-life of peptides in culture medium

T1 sequence (P53350 whole entry): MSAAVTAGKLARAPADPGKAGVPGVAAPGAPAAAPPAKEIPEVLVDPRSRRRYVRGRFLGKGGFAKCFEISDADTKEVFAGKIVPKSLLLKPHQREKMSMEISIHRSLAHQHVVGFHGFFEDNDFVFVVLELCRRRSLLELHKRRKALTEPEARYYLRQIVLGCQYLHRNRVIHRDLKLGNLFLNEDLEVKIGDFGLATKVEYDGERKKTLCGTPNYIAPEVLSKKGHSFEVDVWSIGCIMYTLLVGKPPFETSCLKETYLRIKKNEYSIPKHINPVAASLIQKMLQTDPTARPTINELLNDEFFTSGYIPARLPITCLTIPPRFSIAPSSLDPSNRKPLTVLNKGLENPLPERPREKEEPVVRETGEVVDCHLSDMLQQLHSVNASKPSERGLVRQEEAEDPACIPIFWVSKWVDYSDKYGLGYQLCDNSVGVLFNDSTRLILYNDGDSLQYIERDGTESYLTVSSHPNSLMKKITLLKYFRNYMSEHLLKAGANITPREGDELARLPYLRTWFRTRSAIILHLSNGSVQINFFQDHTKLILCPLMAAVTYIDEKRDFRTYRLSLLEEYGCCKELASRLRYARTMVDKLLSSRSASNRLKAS

SMILES: CC(=O)N1CCC[C@H]1C(=O)N[C@@H](CC(C)C)C(=O)N[C@@H](Cc1c[nH]cn1)C(=O)N[C@@H](CO)C(=O)N[C@H](C(N)=O)[C@@H](C)OP(=O)(OCOC(=O)C(C)(C)C)OCOC(=O)C(C)(C)C [Compound A1, Ac-Pro-Leu-His-Ser-Thr(PO2POM2)-amide] (Ac-PLHS[X1]-NH2)
- half-life at 200 μM (Porcine Liver Esterase): 0.113 h

SMILES: CC(=O)N1CCC[C@H]1C(=O)N[C@@H](CC(C)C)C(=O)N[C@@H](Cc1c[nH]cn1)C(=O)N[C@@H](CO)C(=O)N[C@H](C(N)=O)[C@@H](C)CP(=O)(OCOC(=O)C(C)(C)C)OCOC(=O)C(C)(C)C [Compound A3] (Ac-PLHS[X2]-NH2)
- half-life at 200 μM (Porcine Liver Esterase): 0.085 h

SMILES: CC(=O)N1CCC[C@H]1C(=O)N[C@@H](CC(C)C)C(=O)N[C@@H](Cc1cncn1CCCCCCCCc1ccccc1)C(=O)N[C@@H](CO)C(=O)N[C@H](C(N)=O)[C@@H](C)OP(=O)(OCOC(=O)C(C)(C)C)OCOC(=O)C(C)(C)C [Compound A5] (Ac-PL[His(π-(CH2)8Ph)]S[X1]-NH2)
- half-life at 1 μM [1]: 2.32 h
- half-life at 1 μM [2, 4]: 0.537 h
- half-life at 200 μM ([2]; 200 μM peptide in culture medium, 37° C., read-out: Half-life of peptides in culture medium): 7.43 h
- half-life at 200 μM (Porcine Liver Esterase): 1.9 h

SMILES: CC(=O)N1CCC[C@H]1C(=O)N[C@@H](CC(C)C)C(=O)N[C@@H](Cc1c[n+](CCO)cn1CCCCCCCCc1ccccc1)C(=O)N[C@@H](CO)C(=O)N[C@H](C(N)=O)[C@@H](C)OP(=O)(O)OCOC(=O)C(C)(C)C [Compound A10]
- half-life at 1 μM [1]: 1.48 h
- IC50 [3]: 0.0093 µM
- half-life at 1 μM [2, 4]: 6.87 h
- hydrolysis product detected after 24 h incubation ([2]; 200 μM peptide in culture medium, 24 h): ^a<5% hydrolysis product could be detected after 24 h incubation.
- IC50 (HeLa cells): 57 µM
- half-life at 200 μM (Porcine Liver Esterase): 4 h
